Measurements published in patent US4298610A, “Ester derivatives of quinolopyran-4-one-2-carboxylic acids and antiallergic antasthmatics” (priority 1978, dated 1981).

Test system: passive cutaneous anaphylaxis
Test: passive cutaneous anaphylaxis test (P.C.A.) on rats, oral administration
Format: in vivo, rat (SLC Wister)
Details: 0.5 h, rat, antigen 30 minutes after administration, read-out: Percent inhibition (%)
Experimental: Various 5-hydroxy-quinolopyran-4-one-2-carboxylic acid esters in terms of the R group represented by the general formula [I] were prepared. […] In order to estimate the efficacy of each compound as an anti-allergic antasthmatic, the efficacy was evaluated according to a passive cutaneous anaphylaxis test (P.C.A.) on rats.
To SLC Wister rats were administered intracutaneously egg white albumin recrystallized 5 times and Bodetallapertussis Vaccine, and serum was collected after 13 days from the rats. […] A physiological salt solution in which egg white albumin and a dye (Evans' blue) were dissolved was administered intravenously, 30 minutes after the oral administration, to the rats; and 30 minutes thereafter the back skins of the rats were peeled off. The dye that transuded from the peeled skin was extracted with Na2 SO4 and acetone, and the quantities of the dye were measured by colorimetry at 620 m μ.

## CCCCCCCCCCOC(=O)c1cc(=O)c2c(O)nc3c(C)c(C)ccc3c2o1 [n-decyl ester of 7,8-dimethyl-5-hydroxy-quinolo[4,3-b]pyran-4-one-2-carboxylic acid, reference compound]
  inhibition in vivo at 30 mg/kg: 4.7%

## Cc1ccc2c(nc(O)c3c(=O)cc(C(=O)OCCCC(C)C)oc32)c1C [4-methyl-1-pentyl ester of 7,8-dimethyl-5-hydroxy-quinolo[4,3-b]pyran-4-one-2-carboxylic acid]
  inhibition in vivo at 30 mg/kg: 78.5%

## CCCC(CC)OC(=O)c1cc(=O)c2c(O)nc3c(C)c(C)ccc3c2o1 (stereo not shown) [3-hexyl ester of 7,8-dimethyl-5-hydroxy-quinolo[4,3-b]pyran-4-one-2-carboxylic acid]
  inhibition in vivo at 30 mg/kg: 96.1%

## CCC(C)COC(=O)c1cc(=O)c2c(O)nc3c(C)c(C)ccc3c2o1 (stereo not shown) [2-methyl-1-butyl ester of 7,8-dimethyl-5-hydroxy-quinolo[4,3-b]pyran-4-one-2-carboxylic acid]
  inhibition in vivo at 30 mg/kg: 99.8%

## CCCCCCCOC(=O)c1cc(=O)c2c(O)nc3c(C)c(C)ccc3c2o1 [n-heptyl ester of 7,8-dimethyl-5-hydroxy-quinolo[4,3-b]pyran-4-one-2-carboxylic acid, reference compound]
  inhibition in vivo at 30 mg/kg: 36.3%

## Cc1ccc2c(nc(O)c3c(=O)cc(C(=O)OCC(C)(C)C)oc32)c1C [2,2-dimethyl-1-propyl ester of 7,8-dimethyl-5-hydroxy-quinolo[4,3-b]pyran-4-one-2-carboxylic acid]
  inhibition in vivo at 30 mg/kg: 93.2%

## CCCC(C)COC(=O)c1cc(=O)c2c(O)nc3ccc(C)cc3c2o1 (stereo not shown) [2-methyl-1-pentyl ester of 9-methyl-5-hydroxy-quinolo[4,3-b]pyran-4-one-2-carboxylic acid]
  inhibition in vivo at 30 mg/kg: 83.8%

## CCC(CC)OC(=O)c1cc(=O)c2c(O)nc3c(C)c(C)ccc3c2o1 [3-pentyl ester of 7,8-dimethyl-5-hydroxy-quinolo[4,3-b]pyran-4-one-2-carboxylic acid]
  inhibition in vivo at 30 mg/kg: 65.3%

## Cc1ccc2c(nc(O)c3c(=O)cc(C(=O)OCCC(C)(C)C)oc32)c1C [3,3-dimethyl-1-butyl ester of 7,8-dimethyl-5-hydroxy-quinolo[4,3-b]pyran-4-one-2-carboxylic acid, reference compound]
  inhibition in vivo at 30 mg/kg: 26.5%

## Cc1ccc2c(nc(O)c3c(=O)cc(C(=O)O)oc32)c1C [7,8-dimethyl-5-hydroxy-quinolo[4,3-b]pyran-4-one-2-carboxylic acid, reference compound]
  inhibition in vivo at 100 mg/kg: 5.5%

## CCC(C)C(C)OC(=O)c1cc(=O)c2c(O)nc3c(C)c(C)ccc3c2o1 (stereo not shown) [3-methyl-2-pentyl ester of 7,8-dimethyl-5-hydroxy-quinolo[4,3-b]pyran-4-one-2-carboxylic acid]
  inhibition in vivo at 30 mg/kg: 68.3%

## CCCCCCCCCCCCOC(=O)c1cc(=O)c2c(O)nc3c(C)c(C)ccc3c2o1 [n-dodecyl ester of 7,8-dimethyl-5-hydroxy-quinolo[4,3-b]pyran-4-one-2-carboxylic acid, reference compound]
  inhibition in vivo at 30 mg/kg: -26.2%

## CCCCCOC(=O)c1cc(=O)c2c(O)nc3c(C)c(C)ccc3c2o1 [n-pentyl ester of 7,8-dimethyl-5-hydroxy-quinolo[4,3-b]pyran-4-one-2-carboxylic acid, reference compound]
  inhibition in vivo at 30 mg/kg: 26.5%

## CCCC(C)OC(=O)c1cc(=O)c2c(O)nc3ccc(C)cc3c2o1 (stereo not shown) [2-pentyl ester of 9-methyl-5-hydroxy-quinolo[4,3-b]pyran-4-one-2-carboxylic acid]
  inhibition in vivo at 30 mg/kg: 70%

## CCC(C)COC(=O)c1cc(=O)c2c(O)nc3ccc(C)cc3c2o1 (stereo not shown) [2-methyl-1-butyl ester of 9-methyl-5-hydroxy-quinolo[4,3-b]pyran-4-one-2-carboxylic acid]
  inhibition in vivo at 30 mg/kg: 83%

## Cc1ccc2c(nc(O)c3c(=O)cc(C(=O)OCCC(C)C)oc32)c1C [3-methyl-1-butyl ester of 7,8-dimethyl-5-hydroxy-quinolo[4,3-b]pyran-4-one-2-carboxylic acid]
  inhibition in vivo at 30 mg/kg: 95.5%

## Cc1ccc2c(nc(O)c3c(=O)cc(C(=O)OC4CCCCC4)oc32)c1C [1-cyclohexyl ester of 7,8-dimethyl-5-hydroxy-quinolo[4,3-b]pyran-4-one-2-carboxylic acid, reference compound]
  inhibition in vivo at 30 mg/kg: 33.7%

## CCOC(=O)c1ccc2nc(O)c3c(=O)cc(C(=O)OCCC(C)C)oc3c2c1 [3-methyl-1-butyl ester of 9-ethoxycarbonyl-5-hydroxy-quinolo[4,3-b]pyran-4-one-2-carboxylic acid]
  inhibition in vivo at 30 mg/kg: 52.7%

## Cc1ccc2c(nc(O)c3c(=O)cc(C(=O)OCC(O)CO)oc32)c1C (stereo not shown) [2,3-dihydroxy-propyl ester of 7,8-dimethyl-5-hydroxy-quinolo[4,3-b]pyran-4-one-2-carboxylic acid, reference compound]
  inhibition in vivo at 100 mg/kg: 8.6%

## Cc1ccc2nc(O)c3c(=O)cc(C(=O)OCCC(C)C)oc3c2c1 [3-methyl-1-butyl ester of 9-methyl-5-hydroxy-quinolo[4,3-b]pyran-4-one-2-carboxylic acid]
  inhibition in vivo at 30 mg/kg: 87.2%

## CCCCC(C)OC(=O)c1cc(=O)c2c(O)nc3c(C)c(C)ccc3c2o1 (stereo not shown) [2-hexyl ester of 7,8-dimethyl-5-hydroxy-quinolo[4,3-b]pyran-4-one-2-carboxylic acid]
  inhibition in vivo at 30 mg/kg: 94.7%

## Cc1ccc2c(nc(O)c3c(=O)cc(C(=O)OC(C)C)oc32)c1C [isopropyl ester of 7,8-dimethyl-5-hydroxy-quinolo[4,3-b]pyran-4-one-2-carboxylic acid, reference compound]
  inhibition in vivo at 30 mg/kg: 7.3%

## Cc1ccc2nc(O)c3c(=O)cc(C(=O)OCC(C)(C)C)oc3c2c1 [2,2-dimethyl-1-propyl ester of 9-methyl-5-hydroxy-quinolo[4,3-b]pyran-4-one-2-carboxylic acid]
  inhibition in vivo at 30 mg/kg: 58.4%

## CCCC(C)OC(=O)c1cc(=O)c2c(O)nc3c(C)c(C)ccc3c2o1 (stereo not shown) [2-pentyl ester of 7,8-dimethyl-5-hydroxy-quinolo[4,3-b]pyran-4-one-2-carboxylic acid]
  inhibition in vivo at 30 mg/kg: 95.1%

## CCCC(CC)OC(=O)c1cc(=O)c2c(O)nc3ccc(C)cc3c2o1 (stereo not shown) [3-hexyl ester of 9-methyl-5-hydroxy-quinolo[4,3-b]pyran-4-one-2-carboxylic acid]
  inhibition in vivo at 30 mg/kg: 81.8%

## Cc1ccc2c(nc(O)c3c(=O)cc(C(=O)OC(C)CC(C)C)oc32)c1C (stereo not shown) [4-methyl-2-pentyl ester of 7,8-dimethyl-5-hydroxy-quinolo[4,3-b]pyran-4-one-2-carboxylic acid]
  inhibition in vivo at 30 mg/kg: 67.6%

## CC(C)CCOC(=O)c1cc(=O)c2c(O)nc3ccc(Cl)cc3c2o1 [3-methyl-1-butyl ester of 9-chloro-5-hydroxy-quinolo[4,3-b]pyran-4-one-2-carboxylic acid]
  inhibition in vivo at 30 mg/kg: 59.5%

## COC(=O)c1cc(=O)c2c(O)nc3c(C)c(C)ccc3c2o1 [methyl ester of 7,8-dimethyl-5-hydroxy-quinolo[4,3-b]pyran-4-one-2-carboxylic acid, reference compound]
  inhibition in vivo at 100 mg/kg: 39.4%

## CCOC(=O)c1cc(=O)c2c(O)nc3c(C)c(C)ccc3c2o1 [ethyl ester of 7,8-dimethyl-5-hydroxy-quinolo[4,3-b]pyran-4-one-2-carboxylic acid, reference compound]
  inhibition in vivo at 100 mg/kg: 36.1%

## CCCCc1ccc2nc(O)c3c(=O)cc(C(=O)OCCC(C)C)oc3c2c1 [3-methyl-1-butyl ester of 9-n-butyl-5-hydroxy-quinolo[4,3-b]pyran-4-one-2-carboxylic acid]
  inhibition in vivo at 30 mg/kg: 64.5%

## CCC(OC(=O)c1cc(=O)c2c(O)nc3c(C)c(C)ccc3c2o1)C(C)C (stereo not shown) [2-methyl-3-pentyl ester of 7,8-dimethyl-5-hydroxy-quinolo[4,3-b]pyran-4-one-2-carboxylic acid, reference compound]
  inhibition in vivo at 30 mg/kg: 32.1%

## Cc1ccc2c(nc(O)c3c(=O)cc(C(=O)OC(C)C(C)C)oc32)c1C (stereo not shown) [3-methyl-2-butyl ester of 7,8-dimethyl-5-hydroxy-quinolo[4,3-b]pyran-4-one-2-carboxylic acid, reference compound]
  inhibition in vivo at 30 mg/kg: 22.6%

## Cc1ccc2c(nc(O)c3c(=O)cc(C(=O)OC(C)C(C)(C)C)oc32)c1C (stereo not shown) [3,3-dimethyl-2-butyl ester of 7,8-dimethyl-5-hydroxy-quinolo[4,3-b]pyran-4-one-2-carboxylic acid, reference compound]
  inhibition in vivo at 30 mg/kg: 42.7%

## CCC(CC)COC(=O)c1cc(=O)c2c(O)nc3c(C)c(C)ccc3c2o1 [2-ethyl-1-butyl ester of 7,8-dimethyl-5-hydroxy-quinolo[4,3-b]pyran-4-one-2-carboxylic acid, reference compound]
  inhibition in vivo at 30 mg/kg: 49.1%

## CCCCCCOC(=O)c1cc(=O)c2c(O)nc3c(C)c(C)ccc3c2o1 [n-hexyl ester of 7,8-dimethyl-5-hydroxy-quinolo[4,3-b]pyran-4-one-2-carboxylic acid]
  inhibition in vivo at 30 mg/kg: 72%

## Cc1ccc2c(nc(O)c3c(=O)cc(C(=O)OCCCc4ccccc4)oc32)c1C [3-phenyl-1-propyl ester of 7,8-dimethyl-5-hydroxy-quinolo[4,3-b]pyran-4-one-2-carboxylic acid, reference compound]
  inhibition in vivo at 30 mg/kg: -7.2%

## Cc1ccc2c(nc(O)c3c(=O)cc(C(=O)OCc4ccccc4)oc32)c1C [benzyl ester of 7,8-dimethyl-5-hydroxy-quinolo[4,3-b]pyran-4-one-2-carboxylic acid, reference compound]
  inhibition in vivo at 100 mg/kg: 13.2%
